Tested on: RA patients
Assay: [HDL] determination, Study 1 (RA patients, add-on to MTX)
Assay type: in vivo, human
Protocol: Double-blind, placebo-controlled add on study in subjects with moderately to severely active RA who have an inadequate response to methotrexate (MTX) (oral or parenteral).
595 subjects randomized to one of 6 dose regimens of Compound 1 (dosed as a [Compound 1:HCl:3H2O]) (3 dose levels administered either once or twice daily) or placebo on top of each subject's stable dose of MTX.
Compound 1 (dosed as a [Compound 1:HCl:3H2O]) is dosed for twelve weeks once daily (q.d.) (50 mg, 100 mg or 200 mg) or twice daily (b.i.d.) (25 mg, 50 mg or 100 mg); or placebo.
At Week 12, the subjects on placebo who have not achieved 20% improvement in swollen joint count (SJC66) and tender joint count (TJC68) are re-randomized automatically to receive Compound 1 (dosed as a [Compound 1:HCl:3H2O]) either at 100 mg q.d. or 50 mg b.i.d. doses in a blinded fashion; subjects on 50 mg q.d. who have not achieved 20% improvement in SJC66 and TJC68 will be assigned to 100 mg q.d. and subjects on 25 mg b.i.d. that have not achieved a 20% improvement in SJC66 and TJC68 will be assigned to 50 mg b.i.d. Subjects who switch treatment at week 12 are handled as if they discontinued at week 12 for the purpose of statistical analysis, whereas subjects in the other groups will maintain their randomized treatment until Week 24.
This assay relies on a homogeneous enzymatic colorimetric test. In the presence of magnesium ions, dextran sulfate selectively forms water-soluble complexes with LDL, VLDL and chylomicrons which are resistant to PEG-modified enzymes.
The cholesterol concentration of [HDL]-cholesterol is determined enzymatically by cholesterol esterase and cholesterol oxidase coupled with PEG to the amino groups (approx. 40%).
In the presence of peroxidase, the hydrogen peroxide generated reacts with 4-amino-antipyrine and Sodium N-(2-hydroxy-3-sulfopropyl)-3,5-dimethoxyaniline (HSDA) to form a purple-blue dye. The color intensity of this dye is directly proportional to the cholesterol concentration and is measured photometrically.
Human serum and plasma samples [HDL] determination was done on a Roche/Hitachi Cobas c 701/702 system which automatically calculate the analyte concentration of each sample. Samples containing precipitates are centrifuged before performing the assay.

[1] = continued 50 mg q.d. (N = 63), week 4
[2] = continued 50 mg q.d. (N = 63), week 8
[3] = continued 50 mg q.d. (N = 63), week 12
[4] = continued 50 mg q.d. (N = 63), week 16
[5] = continued 50 mg q.d. (N = 63), week 20
[6] = continued 50 mg q.d. (N = 63), week 24
[7] = continued 100 mg b.i.d. (N = 84), week 1
[8] = continued 100 mg b.i.d. (N = 84), week 2
[9] = continued 100 mg b.i.d. (N = 84), week 4
[10] = continued 100 mg b.i.d. (N = 84), week 8
[11] = continued 100 mg b.i.d. (N = 84), week 12
[12] = continued 100 mg b.i.d. (N = 84), week 16
[13] = continued 100 mg b.i.d. (N = 84), week 20
[14] = continued 100 mg b.i.d. (N = 84), week 24
[15] = continued 100 mg q.d. (N = 85), week 1
[16] = continued 100 mg q.d. (N = 85), week 2
[17] = continued 100 mg q.d. (N = 85), week 4
[18] = continued 100 mg q.d. (N = 85), week 8
[19] = continued 100 mg q.d. (N = 85), week 12
[20] = continued 100 mg q.d. (N = 85), week 16
[21] = continued 100 mg q.d. (N = 85), week 20
[22] = continued 100 mg q.d. (N = 85), week 24
[23] = continued 200 mg q.d. (N = 86), week 1
[24] = continued 200 mg q.d. (N = 86), week 2

O=C(Nc1nc2cccc(-c3ccc(CN4CCS(=O)(=O)CC4)cc3)n2n1)C1CC1 [Compound 1, cyclopropanecarboxylic acid {5-[4-(1,1-dioxo-thiomorpholin-4-ylmethyl)-phenyl]-[1,2,4]triazolo[1,5-a]pyridin-2yl}-amide]
[HDL] Mean percentage CFB - 24 weeks results [1]: 4.87%
[HDL] Median CFB - 24 weeks results [1]: 0.05 mmol/L
[HDL] Mean CFB - 24 weeks results [2]: 0.06 mmol/L
[HDL] Mean percentage CFB - 24 weeks results [2]: 5.57%
[HDL] Median CFB - 24 weeks results [2]: 0.10 mmol/L
[HDL] Mean CFB - 24 weeks results [3]: 0.08 mmol/L
[HDL] Mean percentage CFB - 24 weeks results [3]: 7.86%
[HDL] Median CFB - 24 weeks results [3]: 0.06 mmol/L
[HDL] Mean CFB - 24 weeks results [4]: 0.08 mmol/L
[HDL] Mean percentage CFB - 24 weeks results [4]: 6.63%
[HDL] Median CFB - 24 weeks results [4]: 0.10 mmol/L
[HDL] Mean CFB - 24 weeks results [5]: 0.10 mmol/L
[HDL] Mean percentage CFB - 24 weeks results [5]: 8.81%
[HDL] Median CFB - 24 weeks results [5]: 0.10 mmol/L
[HDL] Mean CFB - 24 weeks results [6]: 0.17 mmol/L
[HDL] Mean percentage CFB - 24 weeks results [6]: 14.22%
[HDL] Median CFB - 24 weeks results [6]: 0.15 mmol/L
[HDL] Mean CFB - 24 weeks results [7]: 0.12 mmol/L
[HDL] Mean percentage CFB - 24 weeks results [7]: 9.40%
[HDL] Median CFB - 24 weeks results [7]: 0.10 mmol/L
[HDL] Mean CFB - 24 weeks results [8]: 0.20 mmol/L
[HDL] Mean percentage CFB - 24 weeks results [8]: 15.20%
[HDL] Median CFB - 24 weeks results [8]: 0.18 mmol/L
[HDL] Mean CFB - 24 weeks results [9]: 0.25 mmol/L
[HDL] Mean percentage CFB - 24 weeks results [9]: 19.54%
[HDL] Median CFB - 24 weeks results [9]: 0.25 mmol/L
[HDL] Mean CFB - 24 weeks results [10]: 0.26 mmol/L
[HDL] Mean percentage CFB - 24 weeks results [10]: 21.15%
[HDL] Median CFB - 24 weeks results [10]: 0.25 mmol/L
[HDL] Mean CFB - 24 weeks results [11]: 0.30 mmol/L
[HDL] Mean percentage CFB - 24 weeks results [11]: 23.14%
[HDL] Median CFB - 24 weeks results [11]: 0.25 mmol/L
[HDL] Mean CFB - 24 weeks results [12]: 0.27 mmol/L
[HDL] Mean percentage CFB - 24 weeks results [12]: 21.09%
[HDL] Median CFB - 24 weeks results [12]: 0.28 mmol/L
[HDL] Mean CFB - 24 weeks results [13]: 0.28 mmol/L
[HDL] Mean percentage CFB - 24 weeks results [13]: 21.88%
[HDL] Median CFB - 24 weeks results [13]: 0.29 mmol/L
[HDL] Mean CFB - 24 weeks results [14]: 0.29 mmol/L
[HDL] Mean percentage CFB - 24 weeks results [14]: 22.68%
[HDL] Median CFB - 24 weeks results [14]: 0.30 mmol/L
[HDL] Mean CFB - 24 weeks results [15]: 0.05 mmol/L
[HDL] Mean percentage CFB - 24 weeks results [15]: 5.43%
[HDL] Median CFB - 24 weeks results [15]: 0.06 mmol/L
[HDL] Mean CFB - 24 weeks results [16]: 0.07 mmol/L
[HDL] Mean percentage CFB - 24 weeks results [16]: 7.02%
[HDL] Median CFB - 24 weeks results [16]: 0.07 mmol/L
[HDL] Mean CFB - 24 weeks results [17]: 0.11 mmol/L
[HDL] Mean percentage CFB - 24 weeks results [17]: 9.40%
[HDL] Median CFB - 24 weeks results [17]: 0.13 mmol/L
[HDL] Mean CFB - 24 weeks results [18]: 0.09 mmol/L
[HDL] Mean percentage CFB - 24 weeks results [18]: 8.18%
[HDL] Median CFB - 24 weeks results [18]: 0.11 mmol/L
[HDL] Mean CFB - 24 weeks results [19]: 0.10 mmol/L
[HDL] Mean percentage CFB - 24 weeks results [19]: 8.49%
[HDL] Median CFB - 24 weeks results [19]: 0.10 mmol/L
[HDL] Mean CFB - 24 weeks results [20]: 0.09 mmol/L
[HDL] Mean percentage CFB - 24 weeks results [20]: 7.94%
[HDL] Median CFB - 24 weeks results [20]: 0.10 mmol/L
[HDL] Mean CFB - 24 weeks results [21]: 0.15 mmol/L
[HDL] Mean percentage CFB - 24 weeks results [21]: 12.24%
[HDL] Median CFB - 24 weeks results [21]: 0.14 mmol/L
[HDL] Mean CFB - 24 weeks results [22]: 0.15 mmol/L
[HDL] Mean percentage CFB - 24 weeks results [22]: 12.17%
[HDL] Median CFB - 24 weeks results [22]: 0.15 mmol/L
[HDL] Mean CFB - 24 weeks results [23]: 0.11 mmol/L
[HDL] Mean percentage CFB - 24 weeks results [23]: 9.42%
[HDL] Median CFB - 24 weeks results [23]: 0.13 mmol/L
[HDL] Mean CFB - 24 weeks results [24]: 0.20 mmol/L
[HDL] Mean percentage CFB - 24 weeks results [24]: 16.66%
[HDL] Median CFB - 24 weeks results [24]: 0.20 mmol/L
[HDL] Mean CFB - 24 weeks results (continued 200 mg q.d. (N = 86), week 4): 0.24 mmol/L

From patent US10376520B2, “Methods for the treatment of cardiovascular disorders” (Galapagos NV, priority 2015, dated 2019)
